Test results reported in patent US11434330B2, “Polyrotaxanes bearing mixed cyclodextrin species and uses thereof” (Purdue Research Foundation, priority 2015, dated 2022).

How the values were obtained:
[1] = In vivo MRI contrast enhancement in Balb/C mice; details: i.v., 3D T1-weighted MRI
Experimental: In Vivo MRI Contrast Enhancement of Gd^3+—HP-β-CD/SBE-β-CD-PRs. To investigate the MR contrast enhancement and the circulation fate in vivo of the polyrotaxanes, 3D T1-weighted MR images of Balb/C mice after intra-venous injection were acquired with 7 T Bruker small animal scanner before injection and 10, 20, 35, 50, and 60 min post injection. The tissue contrast enhancement of the compounds has different fates dependent on the threading efficiency, molecular weight, size and surface charge of each contrast agent. […] As expected, DOTAREM® was completely eliminated within 20 min, a typical trend commonly observed for small contrast agents.
To quantify the contrast enhancements, the contrast signal-to-noise ratio (CNR) was calculated from regions of interest (ROIs) carefully drawn in the cross-section images of heart, liver, and kidney obtained from the 2D T1-weighted scans. There was insignificant signal enhancement in all these tissues (FIG. 4). […]
In Vivo MR Imaging. […] To quantify the changes in tissues signal intensity, regions of interest (ROIs) were drawn in images of different organs obtained from the 2D T1-weighted scans and ParaVision software was used to evaluate the mean intensities. The contrast-to-noise ratio (CNR) was calculated for the tissues using the following equation: […]

J774 macrophage cells = assay: Cellular uptake by MR relaxation of lysed cells; assay type: cell-based; details: 0.1 mM Gd, 12 h at 37° C., serum free media, 7 T
Experimental: Cellular Uptake Studies. Since macromolecular constructs such as polyrotaxanes can trigger the innate immune system (monocytes, macrophages, dendritic cells) in vivo, their uptake of the polyrotaxane contrast was evaluated by macrophages using the MR imaging modality. In addition, one can take advantage of the biological properties of these materials to image macrophages in human diseases including cancer, atherosclerosis, myocardial infarction, diabetes and other conditions. Macrophages are known to play an important role in host system defense leading to the detrimental fate of most nanomaterials. […] Based on these reports, cellular uptake in J774 macrophages of the polyrotaxane contrast agents was assessed. […] T1 and T2 values from the lysed cells contained in 300 μL eppendorf tubes were measured using an inversion recovery sequence at 7 T and the inverse of spin-lattice (1/T1) and spin-spin (1/T2) relaxation times were evaluated. […]
Cellular Uptake Studies. […] These cells were then collected and analyzed using reverse spin echo scanning on Bruker 7 T Biospect small animal scanner (Bindley Bioscience Center, West Lafayette, Ind.). The relaxations T1 and T2 values were collected from samples images recorded from the cells contained in 300 μL plastic containers using the scanning conditions similarly to those employed for In vitro imaging of polyrotaxane solutions.

[2] = Fixed-field relaxivity measurement at 7 T; assay type: physicochemical; details: 7 T Bruker BioSpec; 23° C.; 0.05 to 1.0 mM Gd in water
Experimental: A fixed field measurement of relaxivity was also performed on aqueous solutions of the polyrotaxane contrast agents in the range of 0.05 to 1.0 mM using a 7 T ([…]) Bruker BioSpec scanner at 23° C. The relaxivity r1 and r2 were determined by plotting the inverse longitudinal (1/T1) and transversal (1/T2) relaxation times, respectively, as a function of Gd concentrations.
Relaxivity Measurements. The longitudinal and transversal relaxation rate of the contrast agents and J774 macrophage cells were measured using a 7 T Bruker BioSpec scanner (Bindley Bioscience Center, West Lafayette, Ind.) 47/30 equipped with a Bruker Biospin MRI GmbH volume coil, 86 mm ID, operating at 300 MHz at 23° C. (RES 300 1 H 112/086 QNS TO AD). […] T1 and T2 values were measured using inversion recovery sequence and multi-slice-multi-echo (MSME) sequence respectively. […] The parameters used are as followed. r1: Repetition times, TE=50.72, 100, 350, 750, 1250, 2500, 3500, and 5000 ms, echo time, TE=22.22 ms, FOV=10×10 mm^2, matrix=128×128, slice thickness=1.0 mm, acquisition number=1. r2: TR=2000 ms, TE=15, 30, 45, 60, 75, 90, 105 ms, FOV=20×20 mm^2, matrix=128×128, slice thickness=1 mm, acquisition number=1. r1 and r2 values were determined by as the slopes of the lines for the plot of 1/T1 and 1/T2 against Gd concentrations, respectively, using the same ROI.

[3] = tested on: Niemann-Pick C1-deficient (npc1−/−) fibroblasts; assay: Cholesterol mobilization (filipin staining) in npc1−/− fibroblasts; assay type: cell-based; details: 6 h after treatment, total β-CD concentration 25 μM
Experimental: PR carrying an increasing percentage of SBE-β-CD were administered to Niemann-Pick C1-deficient (npc1−/−) fibroblasts to examine their ability to mobilize cholesterol from sites of aberrant accumulation. Each PR family member, generated with a 0%, 30%, 50%, 60%, or 100% SBE-β-CD feed ratio, was administered at a total β-CD concentration of 25 μM and compared to administration of 25 μM SBE-β-CD or HP-β-CD monomers as controls. Comparisons were made at equivalent β-CD concentrations in these experiments, such that each PR construct carrying 10 copies of β-CD was administered at a 10-fold lower molar concentration than for the β-CD monomer controls, so that any apparent differences in cholesterol mobilization could be attributed to the PR agent (a type of β-CD prodrug) rather than the total drug concentration added to the cells.
HP-β-CD and SBE-β-CD monomers decreased the average filipin staining in npc1−/− fibroblasts to approximately 75% of the untreated control levels after 6 h. PR comprised of 100% HP-β-CD and 100% SBE-β-CD performed equivalently, each decreasing filipin staining to ˜78% of control. PRs carrying 30:70 SBE-β-CD:HP-β-CD ratio decreased fluorescence to ˜65% of the untreated group.

[4] = within 24 h; cited from earlier work
npc1^−/− mice = details: subcutaneous injection, 4.0 mg/kg of body weight; cited from earlier work
[5] = room temperature, in water; cited from earlier work

| Compound | time to complete elimination [1] | cellular uptake (1/T1, 1/T2 of lysed cells) (J774 macrophage cells) | r1 (mM^−1s^−1) (1/T1) [2] | filipin staining, % of untreated control [3] | fraction cleared from the bloodstream [4] | effect on survival, hepatopathology, neuropathology (npc1^−/− mice) | water solubility [5] |
| --- | --- | --- | --- | --- | --- | --- | --- |
| CNC[C@H](O)[C@@H](O)[C@H](O)[C@H](O)CO.O=C([O-])CN1CCN(CC(=O)[O-])CCN(CC(=O)O)CCN(CC(=O)[O-])CC1.[Gd+3] [DOTAREM] | ≤ 20 min | did not show any endocytosis | 3.8 mM⁻¹ s⁻¹ |  |  |  |  |
| 4-sulfobutylether-β-cyclodextrin [SBE-β-CD] |  |  |  | approximately 75% |  |  |  |
| 2-Hydroxypropyl-β-cyclodextrin [HP-β-CD] |  |  |  | approximately 75% | > 90% | improvement in their survival, hepatopathology, and neuropathology | 650 mg/mL |
